According to US8680133B2, “Alkyl indole-3-carbinol-derived antitumor agents” (The Ohio State University Research Foundation, priority 2009, dated 2014):

How the values were obtained:
[1] = test system: PC-3 prostate cancer cells; assay: MTT assay of PC-3 cell viability; assay type: cell-based; conditions: MTT assay, 24, 48 and 72 h; comparison in words
Procedure: Each data point represents means±S.D. (n=6). The activity of OSU-A9M versus its parent compound A9 ([1-(3′-nitro-4′-chlorobenzenesulfonyl)-1H-indol-3-yl]-methanol) and its fluorinated counterpart OSU-A9F ([1-(4-Chloro-3-nitro-benzenesulfonyl)-5-fluoro-1H-indol-3-yl])-methanol in suppressing the cell viability of PC-3 prostate cancer cells was compared using the MTT [3-(4,5-dimethylthiazol-2-yl)-2,5-diphenyl-2H-tetrazolium bromide] assay. Cancer cells and PrECs were grown in 5% FBS-supplemented RPMI 1640 medium or 5% FBS-supplemented prostate epithelial growth medium, respectively, in 96-well, flat-bottomed plates for 24 h, and then exposed to various concentrations of test agents in the same medium for the indicated time intervals. Controls received DMSO vehicle at a concentration equal to that in drug-treated cells. At the end of the treatment, the medium was removed, replaced by 200 μL of 0.5 mg/mL of MTT in the same medium, and cells were incubated in the CO2 incubator at 37° C. for 2 h. Supernatants were removed from the wells, and the reduced MTT dye was solubilized in 200 μL/well DMSO. Absorbance at 570 nm was determined on a plate reader.

PC-3 xenograft tumor = PC-3 xenograft tumor growth in nude mice, oral gavage; assay type: in vivo; conditions: 25 and 50 mg/kg per day by oral gavage, 49-day treatment; in words
Procedure: FIG. 2 provides three graphs (A-C) showing the in vivo effects of OSU-A9M (C) versus OSU-A9 (A) and OSU-A9 F (B), each at 25 and 50 mg/kg per day by oral gavage, on suppressing PC-3 xenograft tumor growth in nude mice (n=6).
The efficacy studies were therefore repeated with OSU-A9M and OSU-A9F, following 42 days and 49 days treatment, respectively, versus OSU-A9 with 49-day treatment.
In all three treatments, the body weights of drug-treated mice were not affected. No signs of overt toxicity were observed.

Compound	In vitro potency against the viability of PC-3 cells [1]	Tumor growth suppression in the PC-3 model (PC-3 xenograft tumor)
O=[N+]([O-])c1cc(S(=O)(=O)n2cc(CO)c3cc(F)ccc32)ccc1Cl [OSU-A9F, reference compound]	greater than or similar to that of OSU-A9	
O=[N+]([O-])c1cc(S(=O)(=O)n2cc(CO)c3ccccc32)ccc1Cl [OSU-A9, [1-(3′-nitro-4′-chlorobenzenesulfonyl)-1H-indol-3-yl]-methanol, reference compound]		significant tumor growth suppression
